Measurements taken from patent US20030104507A1, “Method for detection of ATP” (priority 2001, published 2003).

What was measured:
LucPpe2m146 = experiment: Duration of luminescence (signal stability) and effects of media and sera, DTAB, ± pyrophosphate; type: biochemical, Photuris pennsylvanica
Experimental: In some embodiments, the compositions of the invention were added to intact cells to lyse them, and then ATP detected. In other embodiments, conditioned culture media were themselves assayed for ATP. However, the various components of media, such as buffers, sugars, amino acids, pH indicators, salts, etc., as well as the various factors found in serum (equine, bovine, etc.) may inhibit luciferase activity.
The luciferase-luciferin reaction was initiated by combining 100 μl of the reagent composition composition with 100 μl cell media with serum, varying final concentrations of DTAB (as indicated below in Table Q) and 1.0 μM ATP was added to each reaction plus or minus 10 μM sodium pyrophosphate in wells of a 96-well microtiter luminometer plate; each experimental condition was prepared in triplicate. At various times after initiating the reaction, rlu values were recorded using an Orion microplate luminometer (Berthold Detection Systems; Pforzheim, Germany).

[1] = tested on: endogenous ATPase of L929 cell lysate; experiment: ATPase inhibition at 22° C. and 37° C. by buffered detergent solution with 1% DTAB; type: biochemical; conditions: up to five hours
Experimental: Cell lysate was prepared as described in Example 1. The ability of 1% DTAB to inhibit endogenous ATPase (i.e., ATPase present in a sample) was measured in a complete reagent composition over time at both 22° C. (room temperature) and 37° C. Three cell lysate samples were prepared. Sample 1 contained 4.0 ml L929 cell lysate plus 4.0 ml 25 mM Hepes, pH 7.5. Sample 2 contained 4.0 ml L929 cell lysate plus 4.0 ml buffered detergent solution (40 mM Citrate (pH 6.0), 110 mM MES (pH 6.0), 450 mM KPO4 (pH 6.0), 2.0 mM EDTA, 0.2% Mazu DF-204 (PPG Industries), 2.0 mM NaF, 1.0% DTAB and 2% THESIT—final pH of the buffered detergent solution adjusted to 6.0). Sample 3 contained 4.0 ml DMEM/F12 media (no serum) containing 0.1 μM ATP plus 4.0 ml 25 mM Hepes (pH 7.5). The samples were divided in half; half was incubated at 22° C., half was incubated at 37° C. After 10 minutes of incubation in their respective water baths to allow the solution at 37° C. to reach that temperature (this point is referred to as time=10 min.), 100 μl of each sample was transferred independently to a well of a 96-well luminometer plate in quadruplicate. To each 100 μl sample was added 20 μl of a solution containing luciferin (12.5 mM)/luciferase (200 μg/ml LucPpe2m146)/MgSO4 (50 mM) solution. The resulting relative light units were measured on a Dynex luminometer using 0.5 second reads. […]

[2] = Precipitation of detergent in reagent composition samples; type: physicochemical

CCCCCCCCCCCC[N+](C)(C)C.[Br-] [DTAB, dodecyltrimethylammonium bromide]
Average Relative Light Units (LucPpe2m146; 0.50% DTAB, DMEM + 10% FBS + ATP, 0 min): 204771 relative light units | Average Relative Light Units (LucPpe2m146; 0.50% DTAB, DMEM + 10% FBS + ATP, 10 min): 223493 relative light units | Average Relative Light Units (LucPpe2m146; 0.50% DTAB, DMEM + 10% FBS + ATP, 30 min): 187757 relative light units | Average Relative Light Units (LucPpe2m146; 0.50% DTAB, DMEM + 10% FBS + ATP, 65 min): 146766 relative light units | Average Relative Light Units (LucPpe2m146; 0.50% DTAB, DMEM + 10% FBS + ATP, 120 min): 104150 relative light units | Average Relative Light Units (LucPpe2m146; 0.50% DTAB, DMEM + 10% FBS + ATP, 180 min): 72609 relative light units | Average Relative Light Units (LucPpe2m146; 0.50% DTAB, DMEM + 10% FBS + ATP, 325 min): 32307 relative light units | Average Relative Light Units (LucPpe2m146; 0.50% DTAB, F12/DME + 10% FBS + ATP, 0 min): 13467 relative light units | Average Relative Light Units (LucPpe2m146; 0.50% DTAB, F12/DME + 10% FBS + ATP, 10 min): 13311 relative light units | Average Relative Light Units (LucPpe2m146; 0.50% DTAB, F12/DME + 10% FBS + ATP, 30 min): 11348 relative light units | Average Relative Light Units (LucPpe2m146; 0.50% DTAB, F12/DME + 10% FBS + ATP, 65 min): 9953 relative light units | Average Relative Light Units (LucPpe2m146; 0.50% DTAB, F12/DME + 10% FBS + ATP, 120 min): 8127 relative light units | Average Relative Light Units (LucPpe2m146; 0.50% DTAB, F12/DME + 10% FBS + ATP, 180 min): 6538 relative light units | Average Relative Light Units (LucPpe2m146; 0.50% DTAB, F12/DME + 10% FBS + ATP, 325 min): 3793 relative light units | Average Relative Light Units (LucPpe2m146; 0.50% DTAB, F12/DME + 10% HS + ATP, 0 min): 88405 relative light units | Average Relative Light Units (LucPpe2m146; 0.50% DTAB, F12/DME + 10% HS + ATP, 10 min): 82645 relative light units | Average Relative Light Units (LucPpe2m146; 0.50% DTAB, F12/DME + 10% HS + ATP, 30 min): 70746 relative light units | Average Relative Light Units (LucPpe2m146; 0.50% DTAB, F12/DME + 10% HS + ATP, 65 min): 58749 relative light units | Average Relative Light Units (LucPpe2m146; 0.50% DTAB, F12/DME + 10% HS + ATP, 120 min): 44677 relative light units | Average Relative Light Units (LucPpe2m146; 0.50% DTAB, F12/DME + 10% HS + ATP, 180 min): 33353 relative light units | Average Relative Light Units (LucPpe2m146; 0.50% DTAB, F12/DME + 10% HS + ATP, 325 min): 17414 relative light units | Average Relative Light Units (LucPpe2m146; 0.50% DTAB, RPMI + 10% FBS + ATP, 0 min): 44179 relative light units | Average Relative Light Units (LucPpe2m146; 0.50% DTAB, RPMI + 10% FBS + ATP, 10 min): 43664 relative light units | Average Relative Light Units (LucPpe2m146; 0.50% DTAB, RPMI + 10% FBS + ATP, 30 min): 35909 relative light units | Average Relative Light Units (LucPpe2m146; 0.50% DTAB, RPMI + 10% FBS + ATP, 65 min): 26501 relative light units | Average Relative Light Units (LucPpe2m146; 0.50% DTAB, RPMI + 10% FBS + ATP, 120 min): 16951 relative light units | Average Relative Light Units (LucPpe2m146; 0.50% DTAB, RPMI + 10% FBS + ATP, 180 min): 10153 relative light units | Average Relative Light Units (LucPpe2m146; 0.50% DTAB, RPMI + 10% FBS + ATP, 325 min): 3268 relative light units | Average Relative Light Units (LucPpe2m146; 0.55% DTAB, DMEM + 10% FBS + ATP, 0 min): 52107 relative light units | Average Relative Light Units (LucPpe2m146; 0.55% DTAB, DMEM + 10% FBS + ATP, 10 min): 59799 relative light units | Average Relative Light Units (LucPpe2m146; 0.55% DTAB, DMEM + 10% FBS + ATP, 30 min): 51285 relative light units | Average Relative Light Units (LucPpe2m146; 0.55% DTAB, DMEM + 10% FBS + ATP, 65 min): 42155 relative light units | Average Relative Light Units (LucPpe2m146; 0.55% DTAB, DMEM + 10% FBS + ATP, 120 min): 32891 relative light units | Average Relative Light Units (LucPpe2m146; 0.55% DTAB, DMEM + 10% FBS + ATP, 180 min): 24137 relative light units | Average Relative Light Units (LucPpe2m146; 0.55% DTAB, DMEM + 10% FBS + ATP, 325 min): 12031 relative light units | Average Relative Light Units (LucPpe2m146; 0.55% DTAB, F12/DME + 10% FBS + ATP, 0 min): 6847 relative light units | Average Relative Light Units (LucPpe2m146; 0.55% DTAB, F12/DME + 10% FBS + ATP, 10 min): 6952 relative light units | Average Relative Light Units (LucPpe2m146; 0.55% DTAB, F12/DME + 10% FBS + ATP, 30 min): 6013 relative light units | Average Relative Light Units (LucPpe2m146; 0.55% DTAB, F12/DME + 10% FBS + ATP, 65 min): 5581 relative light units | Average Relative Light Units (LucPpe2m146; 0.55% DTAB, F12/DME + 10% FBS + ATP, 120 min): 4891 relative light units | Average Relative Light Units (LucPpe2m146; 0.55% DTAB, F12/DME + 10% FBS + ATP, 180 min): 4329 relative light units | Average Relative Light Units (LucPpe2m146; 0.55% DTAB, F12/DME + 10% FBS + ATP, 325 min): 3207 relative light units | Average Relative Light Units (LucPpe2m146; 0.55% DTAB, F12/DME + 10% HS + ATP, 0 min): 36615 relative light units | Average Relative Light Units (LucPpe2m146; 0.55% DTAB, F12/DME + 10% HS + ATP, 10 min): 36669 relative light units | Average Relative Light Units (LucPpe2m146; 0.55% DTAB, F12/DME + 10% HS + ATP, 30 min): 31348 relative light units | Average Relative Light Units (LucPpe2m146; 0.55% DTAB, F12/DME + 10% HS + ATP, 65 min): 27979 relative light units | Average Relative Light Units (LucPpe2m146; 0.55% DTAB, F12/DME + 10% HS + ATP, 120 min): 23778 relative light units | Average Relative Light Units (LucPpe2m146; 0.55% DTAB, F12/DME + 10% HS + ATP, 180 min): 19955 relative light units | Average Relative Light Units (LucPpe2m146; 0.55% DTAB, F12/DME + 10% HS + ATP, 325 min): 13539 relative light units | Average Relative Light Units (LucPpe2m146; 0.55% DTAB, RPMI + 10% FBS + ATP, 0 min): 21388 relative light units | Average Relative Light Units (LucPpe2m146; 0.55% DTAB, RPMI + 10% FBS + ATP, 10 min): 22863 relative light units | Average Relative Light Units (LucPpe2m146; 0.55% DTAB, RPMI + 10% FBS + ATP, 30 min): 19631 relative light units | Average Relative Light Units (LucPpe2m146; 0.55% DTAB, RPMI + 10% FBS + ATP, 65 min): 16848 relative light units | Average Relative Light Units (LucPpe2m146; 0.55% DTAB, RPMI + 10% FBS + ATP, 120 min): 12968 relative light units | Average Relative Light Units (LucPpe2m146; 0.55% DTAB, RPMI + 10% FBS + ATP, 180 min): 9661 relative light units | Average Relative Light Units (LucPpe2m146; 0.55% DTAB, RPMI + 10% FBS + ATP, 325 min): 5080 relative light units | loss of ATP (inhibition of ATPase endogenous to the sample) ([1]; 22° C.): no loss of ATP | loss of ATP (inhibition of ATPase endogenous to the sample) ([1]; 37° C.): minimal loss

C[C@H](CCC(=O)[O-])[C@H]1CC[C@H]2[C@@H]3CC[C@@H]4C[C@H](O)CC[C@]4(C)[C@H]3C[C@H](O)[C@]12C.[Na+] [Deoxycholate, sodium deoxycholate]
precipitation in the samples ([2]; 0.1% deoxycholate): slight precipitation | precipitation in the samples ([2]; 0.5% deoxycholate): substantial precipitation
